Laboratory results published in patent US20210122730A1, “GLUCOCORTICOID RECEPTOR MODULATORS” (ORIC Pharmaceuticals, Inc., priority 2017, published 2021).

Target: T1, GR (Homo sapiens, UniProt P04150)
T1 construct: expressed in transfected cells; host or cells: CHO-K1
T1 sequence (P04150 1-777): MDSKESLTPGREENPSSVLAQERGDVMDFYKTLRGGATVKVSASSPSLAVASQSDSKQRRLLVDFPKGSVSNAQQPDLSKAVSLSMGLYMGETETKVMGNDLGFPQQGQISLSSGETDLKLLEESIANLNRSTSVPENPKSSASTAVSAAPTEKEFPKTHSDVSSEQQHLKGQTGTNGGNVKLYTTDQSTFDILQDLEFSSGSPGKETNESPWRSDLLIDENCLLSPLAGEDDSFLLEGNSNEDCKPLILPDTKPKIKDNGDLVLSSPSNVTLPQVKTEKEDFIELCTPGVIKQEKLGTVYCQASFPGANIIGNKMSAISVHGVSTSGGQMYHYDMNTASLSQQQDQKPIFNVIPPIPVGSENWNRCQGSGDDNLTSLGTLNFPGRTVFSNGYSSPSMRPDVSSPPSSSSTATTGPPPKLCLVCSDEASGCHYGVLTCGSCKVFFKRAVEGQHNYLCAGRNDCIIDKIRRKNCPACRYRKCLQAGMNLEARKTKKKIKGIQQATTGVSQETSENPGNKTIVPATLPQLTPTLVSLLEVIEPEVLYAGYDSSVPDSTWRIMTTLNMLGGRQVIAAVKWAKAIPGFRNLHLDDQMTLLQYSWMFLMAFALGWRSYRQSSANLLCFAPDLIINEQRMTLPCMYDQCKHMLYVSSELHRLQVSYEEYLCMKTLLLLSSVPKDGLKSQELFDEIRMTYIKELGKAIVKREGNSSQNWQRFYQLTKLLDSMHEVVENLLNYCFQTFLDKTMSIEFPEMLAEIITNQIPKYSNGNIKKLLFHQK
Experiment: In Vitro GR Luciferase Reporter Assay (antagonist mode, CHO-K1-GR-MMTV-Luc reporter cells)
Type: cell-based
In short: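 CHO-K1-GR-MMTV-Luc cells in phenol red-free DMEM with 10% CSS, stimulated with 10 nM dexamethasone (final) and treated with 8-point 1:5 compound dilutions for about 18-24 h at 37° C. Luciferase measured by OneGlo luminescence; IC50 derived for inhibition of GR activity.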

[1] = antagonist assay with 10 nM Dexamethasone, 18-24 hours
[2] = antagonist mode, 10 nM Dexamethasone

| Structure (SMILES) | IC50 [1] | IC50 [2] |
| --- | --- | --- |
| CN([C@H]1CCC2=Cc3c(cnn3-c3ccc(F)cc3)C[C@]2(C(=O)c2ccccn2)C1)S(=O)(=O)c1ccc(C(F)(F)F)cc1 [Example 85, N-((4aS,6S)-1-(4-fluorophenyl)-4a-picolinoyl-4,4a,5,6,7,8-hexahydro-1H-benzo[f]indazol-6-yl)-N-methyl-4-(trifluoromethyl)benzenesulfonamide] | ≤ 100 nM | – |
| CN([C@H]1CCC2=Cc3c(cnn3-c3ccc(F)cc3)C[C@]2(C(=O)c2cc(C(F)(F)F)ccn2)C1)S(=O)(=O)c1ccc(C(F)(F)F)cc1 [Example 86, N-((4aS,6S)-1-(4-fluorophenyl)-4a-(4-(trifluoromethyl)picolinoyl)-4,4a,5,6,7,8-hexahydro-1H-benzo[f]indazol-6-yl)-N-methyl-4-(trifluoromethyl)benzenesulfonamide] | ≤ 100 nM | – |
| CCn1cc(S(=O)(=O)N(C)[C@H]2CCC3=Cc4c(cnn4-c4ccc(F)cc4)C[C@]3(C(=O)c3cc(C(F)(F)F)ccn3)C2)cn1 [Example 87, 1-ethyl-N-((4aS,6S)-1-(4-fluorophenyl)-4a-(4-(trifluoromethyl)picolinoyl)-4,4a,5,6,7,8-hexahydro-1H-benzo[f]indazol-6-yl)-N-methyl-1H-pyrazole-4-sulfonamide] | ≤ 100 nM | – |
| CN(C(=O)c1ccccc1)[C@H]1CCC2=Cc3c(cnn3-c3ccc(F)cc3)C[C@]2(C(=O)c2ccccn2)C1 [Example 89, N-((4aS,6S)-1-(4-fluorophenyl)-4a-picolinoyl-4,4a,5,6,7,8-hexahydro-1H-benzo[f]indazol-6-yl)-N-methylbenzamide] | ≤ 100 nM | – |
| CN(c1ccccc1)S(=O)(=O)[C@H]1CCC2=Cc3c(cnn3-c3ccc(F)cc3)C[C@]2(C(=O)c2ccccn2)C1 [Example 92, (4aS,6S)-1-(4-fluorophenyl)-N-methyl-N-phenyl-4a-picolinoyl-4,4a,5,6,7,8-hexahydro-1H-benzo[f]indazole-6-sulfonamide] | 100 to 1000 nM | – |
| CN([C@@H]1CCC2=Cc3c(cnn3-c3ccc(F)cc3)C[C@]2(C(=O)c2cc(C(F)(F)F)ccn2)C1)S(=O)(=O)c1cnn(C)c1 [Example 95, N-((4aS,6R)-1-(4-fluorophenyl)-4a-(4-(trifluoromethyl)picolinoyl)-4,4a,5,6,7,8-hexahydro-1H-benzo[f]indazol-6-yl)-N,1-dimethyl-1H-pyrazole-4-sulfonamide] | ≤ 100 nM | – |
| CN(C(=O)c1cnn(C)c1)[C@H]1CCC2=Cc3c(cnn3-c3ccc(F)cc3)C[C@]2(C(=O)c2cc(C(F)(F)F)ccn2)C1 [Example 96, N-((4aS,6S)-1-(4-fluorophenyl)-4a-(4-(trifluoromethyl)picolinoyl)-4,4a,5,6,7,8-hexahydro-1H-benzo[f]indazol-6-yl)-N,1-dimethyl-1H-pyrazole-4-carboxamide] | ≤ 100 nM | – |
| CC(C)n1cc(S(=O)(=O)N(C)[C@H]2CCC3=Cc4c(cnn4-c4ccc(F)cc4)C[C@]3(C(=O)c3cc(C(F)(F)F)ccn3)C2)cn1 [Example 97, N-((4aS,6S)-1-(4-fluorophenyl)-4a-(4-(trifluoromethyl)picolinoyl)-4,4a,5,6,7,8-hexahydro-1H-benzo[f]indazol-6-yl)-1-isopropyl-N-methyl-1H-pyrazole-4-sulfonamide] | ≤ 100 nM | – |
| CN([C@H]1CCC2=Cc3c(cnn3-c3ccc(F)cc3)C[C@]2(C(=O)c2cc(C(F)(F)F)ccn2)C1)S(=O)(=O)c1cnn(C)c1 [Example 100, N-((4aS,6S)-1-(4-fluorophenyl)-4a-(4-(trifluoromethyl)picolinoyl)-4,4a,5,6,7,8-hexahydro-1H-benzo[f]indazol-6-yl)-N,1-dimethyl-1H-pyrazole-4-sulfonamide] | 100 to 1000 nM | – |
| CN(c1cnn(C)c1)S(=O)(=O)[C@H]1CCC2=Cc3c(cnn3-c3ccc(F)cc3)C[C@]2(C(=O)c2cc(C(F)(F)F)ccn2)C1 [Example 101, (4aS,6S)-1-(4-fluorophenyl)-N-methyl-N-(1-methyl-1H-pyrazol-4-yl)-4a-(4-(trifluoromethyl)picolinoyl)-4,4a,5,6,7,8-hexahydro-1H-benzo[f]indazole-6-sulfonamide] | 100 to 1000 nM | – |
| CN([C@H]1CCC2=Cc3c(cnn3-c3ccc(F)cc3)C[C@]2(C(=O)c2ccc(C(F)(F)F)cn2)C1)S(=O)(=O)c1ccc(Cl)cc1 [Example 105, 4-chloro-N-((4aS,6S)-1-(4-fluorophenyl)-4a-(5-(trifluoromethyl)picolinoyl)-4,4a,5,6,7,8-hexahydro-1H-benzo[f]indazol-6-yl)-N-methylbenzenesulfonamide] | ≤ 100 nM | – |
| CN([C@H]1CCC2=Cc3c(cnn3-c3ccc(F)cc3)C[C@]2(C(=O)c2nccs2)C1)S(=O)(=O)c1ccc(F)cc1 [Example 106, 4-fluoro-N-((4aS,6S)-1-(4-fluorophenyl)-4a-(thiazole-2-carbonyl)-4,4a,5,6,7,8-hexahydro-1H-benzo[f]indazol-6-yl)-N-methylbenzenesulfonamide] | ≤ 100 nM | – |
| CN([C@H]1CCC2=Cc3c(cnn3-c3ccc(F)cc3)C[C@]2(C(=O)c2cc(C(F)(F)F)ccn2)C1)S(=O)(=O)c1cnn(CC2CC2)c1 [Example 108, 1-(cyclopropylmethyl)-N-((4aS,6S)-1-(4-fluorophenyl)-4a-(4-(trifluoromethyl)picolinoyl)-4,4a,5,6,7,8-hexahydro-1H-benzo[f]indazol-6-yl)-N-methyl-1H-pyrazole-4-sulfonamide] | ≤ 100 nM | – |
| CCN([C@H]1CCC2=Cc3c(cnn3-c3ccc(F)cc3)C[C@]2(C(=O)c2ccc(C3CC3)cn2)C1)S(=O)(=O)c1ccc(F)cc1 [Example 109, N-((4aS,6S)-4a-(5-cyclopropylpicolinoyl)-1-(4-fluorophenyl)-4,4a,5,6,7,8-hexahydro-1H-benzo[f]indazol-6-yl)-N-ethyl-4-fluorobenzenesulfonamide] | ≤ 100 nM | – |
| CCN([C@H]1CCC2=Cc3c(cnn3-c3ccc(F)cc3)C[C@]2(C(=O)c2ccc(C3CC3)cn2)C1)S(=O)(=O)c1ccc(Cl)cc1 [Example 110, 4-chloro-N-((4aS,6S)-4a-(5-cyclopropylpicolinoyl)-1-(4-fluorophenyl)-4,4a,5,6,7,8-hexahydro-1H-benzo[f]indazol-6-yl)-N-ethylbenzenesulfonamide] | ≤ 100 nM | – |
| O=C(c1cc(C(F)(F)F)ccn1)[C@]12Cc3cnn(-c4ccc(F)cc4)c3C=C1CC[C@H](S(=O)(=O)c1cnn(CC(F)(F)F)n1)C2 [Example 115, ((4aS,6S)-1-(4-Fluorophenyl)-6-((2-(2,2,2-trifluoroethyl)-2H-1,2,3-triazol-4-yl)sulfonyl)-1,4,5,6,7,8-hexahydro-4aH-benzo[f]indazol-4a-yl)(4-(trifluoromethyl)pyridin-2-yl)methanone] | – | ≤ 100 nM |
| CCn1ncc(S(=O)(=O)[C@H]2CCC3=Cc4c(cnn4-c4ccc(F)cc4)C[C@]3(C(=O)c3ccc(C4CC4)cn3)C2)n1 [Example 123, (5-cyclopropylpyridin-2-yl)((4aS,6S)-6-((2-ethyl-2H-1,2,3-triazol-4-yl)sulfonyl)-1-(4-fluorophenyl)-1,4,5,6,7,8-hexahydro-4aH-benzo[f]indazol-4a-yl)methanone] | – | ≤ 100 nM |
| CN([C@H]1CCC2=Cc3c(cnn3-c3ccc(F)cc3)C[C@]2(C(=O)c2ccc(C3CC3)cn2)C1)S(=O)(=O)c1ccc(F)cc1 [Example 124, N-((4aS,6S)-4a-(5-cyclopropylpicolinoyl)-1-(4-fluorophenyl)-4,4a,5,6,7,8-hexahydro-1H-benzo[f]indazol-6-yl)-4-fluoro-N-methylbenzenesulfonamide] | – | ≤ 100 nM |
| O=C(c1ccccn1)[C@]12Cc3cnn(-c4ccc(F)cc4)c3C=C1CC[C@](F)(S(=O)(=O)c1ccccc1)C2 [Example 125, ((4aS,6S)-6-fluoro-1-(4-fluorophenyl)-6-(phenylsulfonyl)-1,4,5,6,7,8-hexahydro-4aH-benzo[f]indazol-4a-yl)(pyridin-2-yl)methanone] | – | ≤ 100 nM |
| CCn1ncc(S(=O)(=O)N(C)[C@H]2CCC3=Cc4c(cnn4-c4ccc(F)cc4)C[C@]3(C(=O)c3cc(C(F)(F)F)ccn3)C2)n1 [Example 126, 2-ethyl-N-((4aS,6S)-1-(4-fluorophenyl)-4a-(4-(trifluoromethyl)picolinoyl)-4,4a,5,6,7,8-hexahydro-1H-benzo[f]indazol-6-yl)-N-methyl-2H-1,2,3-triazole-4-sulfonamide] | – | ≤ 100 nM |
| CCN([C@H]1CCC2=Cc3c(cnn3-c3ccc(F)cc3)C[C@]2(C(=O)c2nccs2)C1)S(=O)(=O)c1ccc(Cl)cc1 [Example 127, 4-chloro-N-ethyl-N-((4aS,6S)-1-(4-fluorophenyl)-4a-(thiazole-2-carbonyl)-4,4a,5,6,7,8-hexahydro-1H-benzo[f]indazol-6-yl)benzenesulfonamide] | – | ≤ 100 nM |
| CCN([C@H]1CCC2=Cc3c(cnn3-c3ccc(F)cc3)C[C@]2(C(=O)c2nccs2)C1)S(=O)(=O)c1ccc(F)cc1 [Example 128, N-ethyl-4-fluoro-N-((4aS,6S)-1-(4-fluorophenyl)-4a-(thiazole-2-carbonyl)-4,4a,5,6,7,8-hexahydro-1H-benzo[f]indazol-6-yl)benzenesulfonamide] | – | ≤ 100 nM |
